Results on two compounds are retold here after patent publication US20240083892A1 (BISICHEM CO., LTD., priority 2021, published 2024).

Assay [1] addresses T1, RIPK1 (Homo sapiens, UniProt Q13546).
T1 construct: endogenous in cells; host or cells: HT-29 (KCLB 30038)
T1 sequence (Q13546 1-671): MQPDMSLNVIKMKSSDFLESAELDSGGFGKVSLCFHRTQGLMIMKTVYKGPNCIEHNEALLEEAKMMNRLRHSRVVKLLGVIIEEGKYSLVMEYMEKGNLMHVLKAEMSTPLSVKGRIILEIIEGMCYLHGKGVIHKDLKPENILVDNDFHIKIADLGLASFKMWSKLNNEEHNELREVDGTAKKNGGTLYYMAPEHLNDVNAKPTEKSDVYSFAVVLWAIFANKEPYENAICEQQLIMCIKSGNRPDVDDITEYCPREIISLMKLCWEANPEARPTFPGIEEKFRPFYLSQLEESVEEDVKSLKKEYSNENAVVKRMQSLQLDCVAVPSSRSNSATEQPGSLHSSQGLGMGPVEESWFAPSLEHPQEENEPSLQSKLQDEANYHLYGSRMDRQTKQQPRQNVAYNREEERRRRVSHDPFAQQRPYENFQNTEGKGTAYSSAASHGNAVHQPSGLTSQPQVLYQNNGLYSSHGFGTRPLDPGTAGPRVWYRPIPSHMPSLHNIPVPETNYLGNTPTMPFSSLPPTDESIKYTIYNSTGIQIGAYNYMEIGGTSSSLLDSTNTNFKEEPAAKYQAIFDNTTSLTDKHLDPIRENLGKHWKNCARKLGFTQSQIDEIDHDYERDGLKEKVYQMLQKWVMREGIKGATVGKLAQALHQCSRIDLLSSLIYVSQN
As to the kind of experiment: Cell-based necroptosis assay for RIPK1 activity (cell viability by CCK-8). Particulars: HT-29 cells; Z-VAD-FMK 20 μM, human TNFα 10 ng/ml, SM-164 100 nM; 24 h; read-out: Cell-base RIPK1 activity: Necroptosis. The method, boiled down:
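HT-29 cells pretreated 30 min with 20 μM Z-VAD-FMK, then necroptosis induced with human TNFα 10 ng/ml plus SM-164 100 nM alongside RIPK1 inhibitor (0.0001–10 uM) for 24 h. Viability read by CCK-8.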

Assay [2] concerns the target T1, RIPK1. Nature of the assay: Immunoblotting of TNFα induced phospho-RIPK1 (ser 166) levels. Type of assay: cell-based. To be noted: HMC3 cells; Z-VAD-FMK, human TNFα 20 ng/ml, SM-164 100 nM; 7 h, serum free media; read-out: Cell-base RIPK1 activity: phspho-RIPK1 (Ser166). The gist of the method: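 HMC3 human microglial cells were pretreated 30 min with Z-VAD-FMK […]. They were then given TNFα 20 ng/ml, SM-164 100 nM and inhibitor (0.1, 1, 10 nM) for 7 h in serum-free medium. BCA-normalised lysates were immunoblotted for phospho-RIPK1 Ser166.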

pIC50: −log10 of the molar value.

With `CN1C(=O)[C@@H](NC(=O)n2cc(Cc3cccc(F)c3)cn2)COc2ccc(OCC(O)c3cccnc3)cc21` (stereo partly drawn) [Example 70, 4-(3-fluorobenzyl)-N-((3S)-7-(2-hydroxy-2-(pyridin-3-yl)ethoxy)-5-methyl-4-oxo-2,3,4,5-tetrahydrobenzo[b][1,4]oxazepin-3-yl)-1H-pyrazole-1-carboxamide], the pIC50 in assay [1] and in assay [2] was above 8.00 throughout.

Take `CN1C(=O)[C@@H](NC(=O)n2cc(Cc3cccc(F)c3)cn2)COc2ccc(OCC(O)c3ccncc3)cc21` (stereo partly drawn) [Example 71, 4-(3-fluorobenzyl)-N-((3S)-7-(2-hydroxy-2-(pyridin-4-yl)ethoxy)-5-methyl-4-oxo-2,3,4,5-tetrahydrobenzo[b][1,4]oxazepin-3-yl)-1H-pyrazole-1-carboxamide]: the pIC50 in assay [1] and in assay [2] was above 8.00 each time.
